Measurements taken from patent US7947694B2, “Substituted pyrazolo[3,4-D]pyrimidines as cell cycle kinase inhibitors” (Janssen Pharmaceutica NV, priority 2005, dated 2011).
Counter-ions that a name gives are not always drawn.

How the values were obtained:
Aurora-B = Aurora-B (Homo sapiens, UniProt Q96GD4); assay: In vitro filtration assay for AURORA B inhibitory activity; assay type: biochemical; details: peptide (C(LRRWSLG)×4) substrate, [33P]-ATP, 1 μM unlabeled ATP, 25° C., 40 minutes; read-out: Aurora B see C.3 (pIC50) (converted)
Method: C.3 In Vitro Filtration Assay for AURORA B Inhibitory Activity
(§1) Compounds of the present invention were tested in an in vitro filtration assay assessing AURORA B activity by means of its substrate-phosphorylation activity using [^33P]-ATP as phosphor donor. The radioactive phosphorylated substrate is then captured on filtermats and the incorporated [^33P] quantitated using a phosphorage storage screen.
The Aurora-B kinase reaction is performed at 25° C. for 40 minutes in a 96-well microtiterplate. The 25 μl reaction volume contains 60 mM Hepes pH 7.5, 3 mM MgCl2, 3 mM MnCl2, 3 μM Na3VO4, 50 μg/ml PEG20000, 1 μM unlabeled ATP, 1 mM DTT, 0.2 μCi AT^33P, 0.25 μg/well peptide (C(LRRWSLG)×4), 100 ng Aurora-B/well and 0.2% compound in 100% DMSO.
(§2) The reaction is stopped by adding 5 μl of a 3% phosphoric acid solution. 10 μl of the reaction mixture is then spotted onto a Filtermat P30 filter (Wallac) and washed 3 times for 5 min. in 75 mM phosphoric acid and 1 time for 5 min. in methanol prior to drying and quantification on the Typhoon (Amersham) using a phosphorage storage screen.
(§3) C.4. Calculation of pIC50 Values
(§4) For each experiment, controls (containing enzyme (complex) and DMSO without compound), a blank incubation (containing DMSO but no enzyme (complex) or compound) and samples (containing enzyme (complex) and compound dissolved in DMSO) were run in parallel. All compounds tested were dissolved and eventually further diluted in DMSO. […] In each test, the blank value was subtracted from both the control and the sample values. The control sample represented maximal enzyme activity. For each sample, the amount of cpm was expressed as a percentage of the mean cpm value of the controls. When appropriate, IC50-values (concentration of the drug, needed to reduce the enzyme activity to 50% of the control) were computed using linear interpolation between the experimental points just above and below the 50% level. Herein the effects of test compounds are expressed as pIC50 (the negative log value of the IC50-value).

CDK4/cyclinD1 = CDK4/cyclinD1 (Homo sapiens, UniProt P11802); assay: In vitro filtration assay for CDK4 inhibitory activity; assay type: biochemical; details: GST-pRb phosphorylation, [33P]-ATP, 1 μM unlabeled ATP, 25° C., 45 minutes; read-out: cdk4 filter (pIC50) (converted)
Method: C.1. In Vitro Filtration Assay for CDK4 Inhibitory Activity
as §1, with “CDK4” for “AURORA B”, “pRb-phosphorylation” for “substrate-phosphorylation”, “pRb” for “substrate”
The CDK4 kinase reaction is performed at 25° C. for 45 minutes in a 96-well microtiterplate. The 25 μl reaction volume contains 50 mM Hepes pH 7.5, 10 mM NaF, 10 mM MgCl2, 1 mM Na3VO4, 1 μM unlabeled ATP, 1 mM DTT, 0.5 μCi AT^33P, 0.76 μg/well GST-pRb, 50 ng CDK4/cyclinD1/well and 0.2% compound in 100% DMSO.
as §2, §3, §4

Aurora A = biological target: T1, Aurora A (Homo sapiens, UniProt O14965); assay: In vitro filtration assay for AURORA A inhibitory activity; assay type: biochemical; details: 200 μM Kemptide substrate, [33P]-ATP, 1 μM unlabeled ATP, 25° C., 40 minutes; read-out: Aurora A see C.2 (pIC50) (converted)
T1 sequence (O14965 1-403): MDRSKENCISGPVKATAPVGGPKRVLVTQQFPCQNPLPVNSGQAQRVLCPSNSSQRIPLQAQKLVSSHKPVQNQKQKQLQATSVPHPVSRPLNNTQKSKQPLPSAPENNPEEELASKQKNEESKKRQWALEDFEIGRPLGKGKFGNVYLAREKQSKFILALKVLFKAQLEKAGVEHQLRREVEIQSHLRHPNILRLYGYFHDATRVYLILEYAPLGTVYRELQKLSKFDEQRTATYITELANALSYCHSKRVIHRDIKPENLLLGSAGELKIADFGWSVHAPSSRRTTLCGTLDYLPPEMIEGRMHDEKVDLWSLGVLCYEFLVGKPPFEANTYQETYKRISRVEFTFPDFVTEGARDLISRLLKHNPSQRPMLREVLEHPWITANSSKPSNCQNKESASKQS
Method: C.2. In Vitro Filtration Assay for AURORA A Inhibitory Activity
as §1, with “A” for “B”
The Aurora-A kinase reaction is performed at 25° C. for 40 minutes in a 96-well microtiterplate. The 25 μl reaction volume contains 12 mM MOPS pH 7, 0.4 mM EDTA, 0.002% Brij35, 1% glycerol, 0.02% beta-mercapto-ethanol, 0.2 mg/ml BSA, 1 μM unlabeled ATP, 0.2 μCi [^33P]-ATP, 200 μM Kemptide, 3 ng Aurora A/well and 0.2% compound in 100% DMSO.
as §2, §3, §4

Chain of CDK4/cyclinD1 (P11802 whole entry, species assumed): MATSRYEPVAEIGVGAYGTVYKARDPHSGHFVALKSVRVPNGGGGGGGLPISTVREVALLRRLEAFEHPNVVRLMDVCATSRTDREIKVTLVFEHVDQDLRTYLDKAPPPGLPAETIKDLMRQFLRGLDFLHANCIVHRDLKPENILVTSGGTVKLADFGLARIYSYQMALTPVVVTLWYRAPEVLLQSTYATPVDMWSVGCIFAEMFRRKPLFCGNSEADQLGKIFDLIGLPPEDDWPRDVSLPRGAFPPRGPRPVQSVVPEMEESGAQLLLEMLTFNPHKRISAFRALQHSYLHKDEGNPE
Chain of CDK4/cyclinD1 (P24385 whole entry partner, species assumed): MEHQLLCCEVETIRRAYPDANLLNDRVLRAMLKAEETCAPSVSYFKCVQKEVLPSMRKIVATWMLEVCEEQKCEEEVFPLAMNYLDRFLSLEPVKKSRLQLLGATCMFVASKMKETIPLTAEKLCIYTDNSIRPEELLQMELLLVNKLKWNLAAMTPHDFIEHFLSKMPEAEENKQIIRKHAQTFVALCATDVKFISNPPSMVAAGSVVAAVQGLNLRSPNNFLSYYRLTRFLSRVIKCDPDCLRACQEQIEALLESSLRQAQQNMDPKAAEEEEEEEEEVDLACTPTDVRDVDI
Chain of Aurora-B (Q96GD4 whole entry): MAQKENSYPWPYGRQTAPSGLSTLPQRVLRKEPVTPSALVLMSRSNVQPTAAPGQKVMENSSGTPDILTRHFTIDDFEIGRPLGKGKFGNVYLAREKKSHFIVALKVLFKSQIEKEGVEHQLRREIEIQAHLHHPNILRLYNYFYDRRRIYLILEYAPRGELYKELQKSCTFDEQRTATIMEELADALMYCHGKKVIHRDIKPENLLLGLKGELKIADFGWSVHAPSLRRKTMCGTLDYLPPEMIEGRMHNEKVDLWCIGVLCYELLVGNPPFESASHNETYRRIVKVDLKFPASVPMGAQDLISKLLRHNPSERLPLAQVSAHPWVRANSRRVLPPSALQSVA

| melting point | IC50 (Aurora-B) | IC50 (CDK4/cyclinD1) | IC50 (Aurora A) | Compound |
| --- | --- | --- | --- | --- |
| 212 to 214 °C | – | – | – | COCCCNCc1ccc(Nc2ncc3cnn(C4CCCCC4)c3n2)cc1 (as salt: HCl) [Co. No. 2] |
| – | > 10000 nM | 7.94 nM | 1580 nM | CCN(CC)CC(O)COc1ccc(Nc2ncc3cnn(C4CCCCC4)c3n2)cc1 (centres unmarked) [Co. No. 1] |
| – | > 10000 nM | 6.31 nM | 158 nM | COCCCNCc1ccc(Nc2ncc3cnn(C4CCCCC4)c3n2)cc1 [Co. No. 2] |
| 222.5 to 224 °C | 7940 nM | 15.8 nM | 126 nM | c1ncn(-c2ccc(Nc3ncc4cnn(C5CCCCC5)c4n3)cc2)n1 [Co. No. 3] |
| – | 316 nM | 25.1 nM | 316 nM | c1ccc2c(c1)CC(NCc1ccc(Nc3ncc4cnn([C@H]5C[C@@H]6CC[C@H]5C6)c4n3)cc1)C2 [Co. No. 4] |
| – | > 10000 nM | 1260 nM | 631 nM | COCCCNS(=O)(=O)c1ccc(Nc2ncc3cnn(C4CCCCC4)c3n2)cc1 [Co. No. 5] |
| – | > 10000 nM | 25.1 nM | 1580 nM | CCN(CC)CCNC(=O)c1ccc(Nc2ncc3cnn(C4CCCCC4)c3n2)cc1 [Co. No. 6] |
| – | > 10000 nM | 20 nM | > 10000 nM | CCN(CC)CCCOc1ccc(Nc2ncc3cnn(C4CCCCC4)c3n2)cc1 [Co. No. 7] |
| – | > 10000 nM | 1000 nM | 631 nM | COCCCN(Cc1ccc(Nc2ncc3cnn(C4CCCCC4)c3n2)cc1)C(=O)OC(C)(C)C [Co. No. 8] |
| – | 158 nM | 79.4 nM | 251 nM | COCCCNCc1ccc(Nc2ncc3cnn([C@H]4C[C@@H]5CC[C@H]4C5)c3n2)cc1 [Co. No. 9] |
| – | 200 nM | 31.6 nM | 200 nM | COCCCNCc1ccc(Nc2ncc3cnn([C@H]4C[C@@H]5CC[C@H]4C5)c3n2)cc1 [Co. No. 10] |
| – | 5010 nM | 2000 nM | 794 nM | COCCCN(Cc1ccc(Nc2ncc3cnn([C@H]4C[C@@H]5CC[C@H]4C5)c3n2)cc1)C(=O)OC(C)(C)C [Co. No. 11] |
| – | 7940 nM | 631 nM | 3980 nM | COCCCNCc1ccc(Nc2ncc3cnn(C4CCOCC4)c3n2)cc1 [Co. No. 12] |
| – | 794 nM | 2000 nM | 100 nM | COCCCN(Cc1ccc(Nc2ncc3cnn(C4CCOCC4)c3n2)cc1)C(=O)OC(C)(C)C [Co. No. 13] |
| – | 7940 nM | 158 nM | 316 nM | c1cc2cc(Nc3ncc4cnn(C5CCCCC5)c4n3)ccc2[nH]1 [Co. No. 14] |
| – | > 10000 nM | > 10000 nM | 1000 nM | CC(C)(C)OC(=O)N(Cc1ccc(Nc2ncc3cnn(C4CCCCC4)c3n2)cc1)C1Cc2ccccc2C1 [Co. No. 15] |
| – | 7940 nM | 12.6 nM | 251 nM | c1ccc2c(c1)CC(NCc1ccc(Nc3ncc4cnn(C5CCCCC5)c4n3)cc1)C2 [Co. No. 16] |
| – | 501 nM | 63.1 nM | 316 nM | O=C(NC1Cc2ccccc2C1)c1ccc(Nc2ncc3cnn(C4CCCCC4)c3n2)cc1 [Co. No. 17] |
| – | 6310 nM | 63.1 nM | 3160 nM | c1ccc2c(c1)CC(NCc1ccc(Nc3ncc4cnn(C5CCOCC5)c4n3)cc1)C2 [Co. No. 18] |
| – | 631 nM | > 10000 nM | 158 nM | CC(C)(C)OC(=O)N(c1ccc(CN(C(=O)OC(C)(C)C)C2Cc3ccccc3C2)cc1)c1ncc2cnn([C@H]3C[C@@H]4CC[C@H]3C4)c2n1 [Co. No. 19] |
| – | > 10000 nM | > 10000 nM | 6310 nM | CC(C)(C)OC(=O)N(Cc1ccc(Nc2ncc3cnn([C@H]4C[C@@H]5CC[C@H]4C5)c3n2)cc1)C1Cc2ccccc2C1 [Co. No. 20] |
| – | 7940 nM | 100 nM | 631 nM | CN(C)CCOC(=O)c1ccc(Nc2ncc3cnn(C4CCCCC4)c3n2)cc1 [Co. No. 21] |
